The values below come from US4474967A, “8-Deutero and 8-tritio-substituted derivatives of D-4S-6-fluoro-spiro-[chroman-4,4'-imidazolidine]-2',5'-dione” (Pfizer Inc., priority 1983, dated 1984).

SMILES strings stand for the structures.

In this assay the test system is aldose reductase. As to the kind of experiment: Inhibition of aldose reductase enzyme activity (S. Hayman et al., as modified by K. Sestanj et al.). Format: biochemical. The note with it: partially purified aldose reductase enzyme from calf lens. The method, then: The following asymmetric spiro-hydantoin compounds of Examples 1 and 2, respectively, were tested at a concentration level of 10^-6 M for their ability to reduce or inhibit aldose reductase enzyme activity via the procedure of S. Hayman et al., as described in the Journal of Biological Chemistry, Vol. 240, p. 877(1965) and as modified by K. Sestanj et al. in U.S. Pat. No. 3,821,383. In each case, the substrate employed was partially purified aldose reductase enzyme obtained from calf lens.

Turning to `O=C1NC(=O)[C@@]2(CCOc3c(F)cc(F)cc32)N1` [Product of Example 1, 4S-6,8-difluoro-spiro-[chroman-4,4'-imidazolidine]-2',5'-dione], the % Inhibition (usually the change of the read-out against control, counted positive when it falls) at 10^-6 M was determined as 74%.

For `O=C1NC(=O)[C@@]2(CCOc3c(Cl)cc(F)cc32)N1` [Product of Example 2, 4S-6-fluoro-8-chloro-spiro-[chroman-4,4'-imidazolidine]-2',5'-dione], the “% Inhibition at 10^-6 M” value is given as 64%.
